Experimental data as given in PMC4503722, “Novel Phenotypic Outcomes Identified for a Public Collection of Approved Drugs from a Publicly Accessible Panel of Assays” (PLoS ONE, 2015).

Columns and labels:
[1] = system: endothelial tube formation in co-cultures of ECFCs and ADSCs treated with VEGF; experiment: cells; assay type: cell-based, human
[2] = system: alkaline phosphatase (ALP) activity in C2C12 cells; assay type: cell-based; conditions: assay number 6; concentration response
[3] = system: nuclear β-catenin in C2C12 cells; experiment: cells; assay type: cell-based; conditions: assay number 5; concentration response
[4] = system: ECFC/ADSC co-culture cell nuclei number
hKDR = molecular target: T1, hKDR (Homo sapiens, UniProt P35968); experiment: Cerep LANCE kinase assay hKDR (S1 assay 32); assay type: biochemical; conditions: assay number 32
T1 construct: purchased Cerep (LANCE kinase assay platform, contract assay)
T1 sequence (P35968 20-1356): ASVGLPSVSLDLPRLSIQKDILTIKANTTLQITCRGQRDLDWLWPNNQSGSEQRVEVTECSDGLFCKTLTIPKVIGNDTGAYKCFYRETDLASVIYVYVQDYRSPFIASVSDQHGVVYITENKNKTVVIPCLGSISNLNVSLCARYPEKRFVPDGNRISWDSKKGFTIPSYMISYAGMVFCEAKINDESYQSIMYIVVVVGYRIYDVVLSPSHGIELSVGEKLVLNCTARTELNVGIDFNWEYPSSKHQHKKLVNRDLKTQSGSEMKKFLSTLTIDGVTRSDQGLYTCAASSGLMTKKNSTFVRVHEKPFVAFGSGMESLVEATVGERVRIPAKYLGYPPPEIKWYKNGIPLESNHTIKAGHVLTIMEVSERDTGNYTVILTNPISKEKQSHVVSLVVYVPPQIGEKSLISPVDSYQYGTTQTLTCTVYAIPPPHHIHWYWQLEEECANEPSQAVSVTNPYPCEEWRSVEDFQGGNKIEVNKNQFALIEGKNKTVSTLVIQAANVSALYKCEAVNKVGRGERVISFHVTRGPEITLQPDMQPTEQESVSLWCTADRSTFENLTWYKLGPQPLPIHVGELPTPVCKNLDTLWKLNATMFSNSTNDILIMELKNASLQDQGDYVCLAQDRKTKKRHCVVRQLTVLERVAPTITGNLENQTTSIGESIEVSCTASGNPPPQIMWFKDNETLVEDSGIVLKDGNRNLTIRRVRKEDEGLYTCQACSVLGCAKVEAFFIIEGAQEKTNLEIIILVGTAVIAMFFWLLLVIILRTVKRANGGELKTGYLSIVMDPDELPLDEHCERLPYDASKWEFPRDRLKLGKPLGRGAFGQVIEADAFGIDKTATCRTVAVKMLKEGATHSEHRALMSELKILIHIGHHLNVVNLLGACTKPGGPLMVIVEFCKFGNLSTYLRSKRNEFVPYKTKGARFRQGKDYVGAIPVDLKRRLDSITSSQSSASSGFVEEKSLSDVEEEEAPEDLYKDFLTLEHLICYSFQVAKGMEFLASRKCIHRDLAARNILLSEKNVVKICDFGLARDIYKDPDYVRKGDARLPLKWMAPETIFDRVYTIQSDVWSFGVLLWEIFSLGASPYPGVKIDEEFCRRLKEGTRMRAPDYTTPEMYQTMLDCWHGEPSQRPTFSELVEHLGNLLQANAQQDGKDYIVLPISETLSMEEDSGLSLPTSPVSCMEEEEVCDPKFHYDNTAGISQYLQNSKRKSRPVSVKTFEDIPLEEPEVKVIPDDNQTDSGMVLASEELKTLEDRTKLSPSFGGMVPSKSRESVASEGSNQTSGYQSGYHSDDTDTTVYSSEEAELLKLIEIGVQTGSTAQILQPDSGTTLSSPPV

STC-1 cell line = assay type: cell-based, mouse; conditions: assay number 13
hJAK2 = molecular target: T2, hJAK2 (Homo sapiens, UniProt O60674); experiment: Cerep LANCE kinase assay hJAK2 (S1 assay 33); assay type: biochemical; conditions: assay number 33
T2 construct: purchased Cerep (LANCE kinase assay platform, contract assay)
T2 sequence (O60674 whole entry): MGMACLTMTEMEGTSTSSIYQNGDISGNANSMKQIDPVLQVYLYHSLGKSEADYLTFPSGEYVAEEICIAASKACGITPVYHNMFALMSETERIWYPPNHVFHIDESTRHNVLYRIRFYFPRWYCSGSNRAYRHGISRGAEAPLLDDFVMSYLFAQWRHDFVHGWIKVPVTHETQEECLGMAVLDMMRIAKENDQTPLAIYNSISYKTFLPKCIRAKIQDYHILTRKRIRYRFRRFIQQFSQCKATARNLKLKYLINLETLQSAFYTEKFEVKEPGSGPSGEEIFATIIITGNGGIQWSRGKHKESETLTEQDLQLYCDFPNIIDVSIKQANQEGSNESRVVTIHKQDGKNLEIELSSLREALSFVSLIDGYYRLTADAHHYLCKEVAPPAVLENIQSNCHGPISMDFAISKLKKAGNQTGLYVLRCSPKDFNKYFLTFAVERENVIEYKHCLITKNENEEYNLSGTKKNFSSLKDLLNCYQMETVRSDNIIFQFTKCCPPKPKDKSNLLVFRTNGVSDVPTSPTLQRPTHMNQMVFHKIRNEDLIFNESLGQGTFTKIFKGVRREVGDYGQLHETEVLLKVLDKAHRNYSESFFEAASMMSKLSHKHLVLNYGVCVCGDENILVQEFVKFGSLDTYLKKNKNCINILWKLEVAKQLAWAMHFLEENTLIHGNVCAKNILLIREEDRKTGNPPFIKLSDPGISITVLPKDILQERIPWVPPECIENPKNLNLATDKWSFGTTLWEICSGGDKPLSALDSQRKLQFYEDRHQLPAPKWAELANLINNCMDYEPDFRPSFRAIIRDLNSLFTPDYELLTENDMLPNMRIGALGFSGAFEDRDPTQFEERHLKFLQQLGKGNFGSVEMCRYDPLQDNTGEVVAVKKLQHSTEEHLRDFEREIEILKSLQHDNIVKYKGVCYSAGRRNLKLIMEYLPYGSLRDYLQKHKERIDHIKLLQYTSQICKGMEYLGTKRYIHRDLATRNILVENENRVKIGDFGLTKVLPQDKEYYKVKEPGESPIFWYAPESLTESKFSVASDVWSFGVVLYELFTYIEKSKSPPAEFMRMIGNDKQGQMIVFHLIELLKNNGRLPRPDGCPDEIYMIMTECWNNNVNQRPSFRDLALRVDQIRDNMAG

hGSK3b = molecular target: T3, hGSK3b (Homo sapiens, UniProt P49841); experiment: Cerep LANCE kinase assay hGSK3b (S1 assay 34); assay type: biochemical; conditions: assay number 34
T3 construct: purchased Cerep (LANCE kinase assay platform, contract assay)
T3 sequence (P49841 whole entry): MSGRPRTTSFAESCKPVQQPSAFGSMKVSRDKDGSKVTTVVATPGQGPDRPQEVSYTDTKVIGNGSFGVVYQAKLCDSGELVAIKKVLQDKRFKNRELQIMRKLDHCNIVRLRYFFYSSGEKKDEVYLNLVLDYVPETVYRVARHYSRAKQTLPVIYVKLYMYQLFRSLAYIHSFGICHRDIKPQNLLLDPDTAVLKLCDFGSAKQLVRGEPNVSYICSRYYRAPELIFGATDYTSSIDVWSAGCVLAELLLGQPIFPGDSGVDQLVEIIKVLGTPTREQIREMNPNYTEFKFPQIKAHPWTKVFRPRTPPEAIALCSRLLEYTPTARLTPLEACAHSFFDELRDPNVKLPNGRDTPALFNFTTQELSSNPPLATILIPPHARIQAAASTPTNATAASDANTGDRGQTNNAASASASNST

hp70S6K1 (RPS6KB1) = molecular target: T4, hp70S6K1 (RPS6KB1) (Homo sapiens, UniProt P23443); experiment: Cerep LANCE kinase assay hp70S6K1 (S1 assay 31); assay type: biochemical; conditions: assay number 31
T4 construct: purchased Cerep (LANCE kinase assay platform, contract assay)
T4 sequence (P23443 whole entry): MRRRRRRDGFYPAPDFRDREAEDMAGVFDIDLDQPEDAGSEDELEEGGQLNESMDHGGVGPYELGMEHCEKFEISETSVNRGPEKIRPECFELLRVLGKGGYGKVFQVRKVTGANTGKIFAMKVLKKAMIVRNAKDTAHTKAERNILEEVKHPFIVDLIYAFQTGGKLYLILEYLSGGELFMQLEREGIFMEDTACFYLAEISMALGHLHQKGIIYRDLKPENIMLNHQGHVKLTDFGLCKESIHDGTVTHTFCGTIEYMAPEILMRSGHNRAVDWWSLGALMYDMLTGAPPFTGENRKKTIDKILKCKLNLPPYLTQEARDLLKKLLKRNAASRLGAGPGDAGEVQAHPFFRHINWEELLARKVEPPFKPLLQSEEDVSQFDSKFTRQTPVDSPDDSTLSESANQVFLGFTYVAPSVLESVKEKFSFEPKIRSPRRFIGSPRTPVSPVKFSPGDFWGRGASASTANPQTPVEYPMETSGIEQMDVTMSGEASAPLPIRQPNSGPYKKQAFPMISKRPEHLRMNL

HeLa cells = experiment: cells; assay type: cell-based; conditions: for Hela CellCycMod PI 2N IC50/EC50: assay number 14; for Hela CellCycMod PI 4N IC50/EC50: assay number 16; for Hela CellCycMod PI MI IC50/EC50: assay number 17; for Hela CellCycMod PI Cell Number IC50/EC50: assay number 18
INS-1E cells = experiment: cells; assay type: cell-based, rat; conditions: assay number 8; 5 mM glucose;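 further: secreted insulin quantified by homogeneous immunoassay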
NCI-H716 cells = experiment: cells; assay type: cell-based, Human; conditions: assay number 12
hFLT3 = molecular target: T5, hFLT3 (Homo sapiens, UniProt P36888); experiment: Cerep LANCE kinase assay hFLT3 (S1 assay 35); assay type: biochemical; conditions: assay number 35
T5 construct: purchased Cerep (LANCE kinase assay platform, contract assay)
T5 sequence (P36888 27-993): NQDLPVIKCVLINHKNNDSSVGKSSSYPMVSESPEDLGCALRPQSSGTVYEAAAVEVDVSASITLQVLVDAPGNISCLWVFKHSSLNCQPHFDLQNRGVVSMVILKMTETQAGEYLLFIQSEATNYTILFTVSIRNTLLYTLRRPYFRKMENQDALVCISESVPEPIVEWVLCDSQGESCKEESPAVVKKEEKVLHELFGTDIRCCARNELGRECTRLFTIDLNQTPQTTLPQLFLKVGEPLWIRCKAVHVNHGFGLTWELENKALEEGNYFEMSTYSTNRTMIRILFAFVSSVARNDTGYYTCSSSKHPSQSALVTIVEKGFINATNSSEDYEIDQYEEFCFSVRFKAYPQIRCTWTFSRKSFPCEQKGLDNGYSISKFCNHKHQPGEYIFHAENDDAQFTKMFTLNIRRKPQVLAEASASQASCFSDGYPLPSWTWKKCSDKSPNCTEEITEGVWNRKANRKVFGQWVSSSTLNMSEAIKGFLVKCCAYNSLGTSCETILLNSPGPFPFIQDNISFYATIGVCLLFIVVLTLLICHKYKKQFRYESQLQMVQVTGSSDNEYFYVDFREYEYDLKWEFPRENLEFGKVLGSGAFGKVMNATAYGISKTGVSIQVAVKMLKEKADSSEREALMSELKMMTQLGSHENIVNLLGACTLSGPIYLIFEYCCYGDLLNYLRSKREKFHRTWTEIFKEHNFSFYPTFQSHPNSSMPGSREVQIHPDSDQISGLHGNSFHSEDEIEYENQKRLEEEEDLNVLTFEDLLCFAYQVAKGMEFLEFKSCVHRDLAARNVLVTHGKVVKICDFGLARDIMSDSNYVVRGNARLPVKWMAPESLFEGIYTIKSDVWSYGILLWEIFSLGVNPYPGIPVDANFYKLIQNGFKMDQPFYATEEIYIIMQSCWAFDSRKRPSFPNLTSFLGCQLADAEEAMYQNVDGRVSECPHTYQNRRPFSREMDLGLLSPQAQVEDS

Row | SMILES | VEGF_ADSC\ECFC Angio CD31 TubeArea IC50/EC50 [1] [µM] | WntCondMedia_Alk Phos C2C12 IC50/EC50 [2] [µM] | WntCondMedia_bCatenin C2C12 IC50/EC50 [3] [µM] | VEGF_ADSC\ECFC Angio Hoechst NucArea IC50/EC50 [4] [µM] | hKDR LANCE IC50/EC50 (hKDR) [µM] | mSTC-1 GLP1 Secretion IC50/EC50 (STC-1 cell line) [µM] | hJAK2 LANCE IC50/EC50 (hJAK2) [µM] | hGSK3b LANCE IC50/EC50 (hGSK3b) [µM] | hp70S6K1 LANCE IC50/EC50 (hp70S6K1 (RPS6KB1)) [µM] | Hela CellCycMod PI 2N IC50/EC50 (HeLa cells) [µM] | Hela CellCycMod PI 4N IC50/EC50 (HeLa cells) [µM] | Hela CellCycMod PI MI IC50/EC50 (HeLa cells) [µM] | Hela CellCycMod PI Cell Number IC50/EC50 (HeLa cells) [µM] | 5mMGluc_INS1E SecretionMod IC50/EC50 (INS-1E cells) [µM] | hNCI-H716 GLP1 Secretion IC50/EC50 (NCI-H716 cells) [µM] | hFLT3 LANCE IC50/EC50 (hFLT3) [µM]
1 | COc1cc([C@@H]2c3cc4c(cc3[C@@H](O[C@@H]3O[C@@H]5CO[C@@H](C)O[C@@H]5[C@H](O)[C@@H]3O)[C@H]3COC(=O)[C@H]23)OCO4)cc(OC)c1O [NCGC00179504-05] | 0.1091 | > 20 | > 20 | 0.9666 | – | – | – | – | – | – | – | – | – | – | – | –
2 | CCCCCCCCCCCCCCCCCCNC(=O)OC1CCN(C(=O)OC[C@H](COC(=O)N(Cc2cccc[n+]2CC)C(=O)c2ccccc2OC)OC)CC1.[Cl-] [NCGC00183020-01] | 1.4957 | – | – | > 10 | > 20 | 13.8183 | > 20 | > 20 | > 20 | > 10 | > 10 | > 10 | 6.1389 | 21.7337 | 9.522 | > 20
3 | Cc1nc(Nc2ncc(C(=O)Nc3c(C)cccc3Cl)s2)cc(N2CCN(CCO)CC2)n1 [NCGC00181129-06] | > 10 | 0.0067 | 0.1044 | > 10 | – | – | – | – | – | > 10 | > 10 | > 10 | 0.8748 | – | – | –
4 | CCCCCCCCCCCCCCC[C@H](O)[C@@H](N)CO [NCGC00015362-05] | – | > 20 | > 20 | – | – | – | – | – | – | – | – | – | – | – | – | –
5 | CN[C@@H]1C[C@@H](c2ccc(Cl)c(Cl)c2)c2ccccc21 [NCGC00025223-04] | > 10 | > 20 | > 20 | > 10 | – | – | – | – | – | – | – | – | – | – | – | –
6 | CN1CC[C@H](c2c(O)cc(O)c3c(=O)cc(-c4ccccc4Cl)oc23)[C@H](O)C1.Cl [NCGC00250401-02] | 0.1138 | 0.4611 | 0.1905 | 0.3284 | – | – | – | – | – | > 10 | > 10 | 0.0807 | 0.0212 | – | – | –
7 | Clc1cc(Cl)c(OCC#CI)cc1Cl [NCGC00181134-02] | > 10 | > 20 | > 20 | > 10 | – | – | – | – | – | – | – | – | – | – | – | –
8 | Cl.O[C@@H](c1cc(C(F)(F)F)nc2c(C(F)(F)F)cccc12)[C@H]1CCCCN1 [NCGC00161831-04] | > 10 | > 20 | > 20 | 8.609 | – | – | – | – | – | – | – | – | – | – | – | –
